Reference: PubChem BioAssay (NCI)
Where “and” joins values, the source holds several entries; their conditions need not be identical. Equal entries are not always repeated.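 1) Cells in 96-well plates. 2) Compound, 48 h, 5 concentrations. 3) Linear interpolation between surrounding doses. 4) Unreached endpoint = highest concentration. The concentration for 50% growth inhibition is given as GI50. The concentration for full growth arrest is given as TGI.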

What was measured:
Assay in all cases: growth of human tumour cells (NCI), 48 h
BT-549 breast = test system: BT-549 breast
NCI/ADR-RES ovarian = test system: NCI/ADR-RES ovarian
HL-60(TB) leukemia = test system: HL-60(TB) leukemia
K-562 leukemia = test system: K-562 leukemia
MALME-3M melanoma = test system: MALME-3M melanoma
HOP-92 NSCLC = test system: HOP-92 NSCLC
OVCAR-3 ovarian = test system: OVCAR-3 ovarian
SNB-19 CNS = test system: SNB-19 CNS
UO-31 renal = test system: UO-31 renal
UACC-257 melanoma = test system: UACC-257 melanoma

SMILES | GI50 (BT-549 breast) [µM] | TGI (BT-549 breast) [µM] | GI50 (NCI/ADR-RES ovarian) [µM] | TGI (NCI/ADR-RES ovarian) [µM] | GI50 (HL-60(TB) leukemia) [µM] | TGI (HL-60(TB) leukemia) [µM] | GI50 (K-562 leukemia) [µM] | TGI (K-562 leukemia) [µM] | GI50 (MALME-3M melanoma) [µM] | TGI (MALME-3M melanoma) [µM] | GI50 (HOP-92 NSCLC) [µM] | TGI (HOP-92 NSCLC) | GI50 (OVCAR-3 ovarian) [µM] | TGI (OVCAR-3 ovarian) [µM] | GI50 (SNB-19 CNS) [µM] | TGI (SNB-19 CNS) [µM] | GI50 (UO-31 renal) [µM] | TGI (UO-31 renal) [µM] | GI50 (UACC-257 melanoma) [µM] | TGI (UACC-257 melanoma) [µM]
ClCc1cccc2c(CCl)cccc12 | 3.99 | 16.7 | 2.58 | 12.1 | 4.49 | > 100 | 10.5 | > 100 | 2.37 | 25.5 | 2.83 | 18.7 µM | 1.76 | 3.83 | 5.08 | 19.7 | 2.2 | 8.87 | 2.6 | 12.6
C/C(=N\NC(=S)N1CC2CCC(CC2)C1)c1nccs1 |  | 20 |  | 3.9 |  | 0.0184 |  | 9.9 |  | 13.9 |  | 7.21 µM |  | 19.8 |  | 15.1 |  | 1.52 |  | 6.06
CN(/N=C/c1cccc2cccnc12)c1ccc([N+](=O)[O-])cc1[N+](=O)[O-] |  | 59.7 |  | > 100 |  | > 68.1 |  | > 100 |  | 70.2 |  | 42.7 µM |  | 39.8 |  | 40.2 |  | 90.1 |  | > 100
C[C@]12C[C@H](CCCCCCNCCOC(=O)NCCCc3ccc(N(CCCl)CCCl)cc3)C3=C4CCC(=O)C=C4CCC3C1CC[C@@H]2O (stereo partly specified) | 1.6 | 3.09 | 14 | 36.2 | 0.248 | 0.659 | 0.308 | 1.07 | 2.29 | 5.15 |  |  |  |  |  |  | 1.27 | 2.98 | 1.69 | 3.21
CCOC(=O)/C(C=Nc1ccc(-c2nc3ccccc3[nH]2)cc1)=C(/C)O | 10 | 24.9 | 13 | 32.2 | 18.5 | 44 | 4.51 | 14.8 |  |  | 19.4 | > 50 µM | 12.7 | 31.7 | 32.7 | > 50 | 10.3 | 31.1 | 11.5 | 28.3
C[C@]12CC[C@@H]3c4ccc(OC(=O)N(CCCl)CCCl)cc4CC[C@H]3[C@@H]1CC[C@@H]2O | 4.64 | 17.1 | 1.92 | 8.81 | 0.731 |  |  | > 47.5 | 1.16 | 7.52 | 9.04 | 43.2 µM and 6.51 µM | 0.691 | 4.56 | 7.04 |  | 3.12 | 14 | 3.81 | 15
COC12C=C/C(=C(/C(=O)OCc3cncnc3)C(=O)CCCCCCCCC3(OC)C=C/C(=C(/C(=O)OCc4cncnc4)C(=O)CCCCCCCC1)O3)O2 | 0.188 | 2.07 | 0.609 | > 50 | 0.387 | 2.82 | 0.188 | 1.14 |  |  | 1 | 2.18 µM | 0.195 | 1.07 | 0.458 | > 50 | 0.542 | 1.28 | 0.937 | 2.94
C/C=C(\C)C(=O)NC1=CC[C@@]2(C)C(=CCC3C2CC[C@@]2(C)C3CC[C@@H]2C(C)N(C)C)C1=O (stereo partly specified) | 3.39 | 15.8 | 6.44 | 42.5 | 1.42 | 5.2 | 0.451 | 2.86 | 2.1 | 5.34 | 1.66 | 14.8 µM | 2.5 | 12.8 | 15.9 | > 64.1 | 1.44 | 3.02 | 2.88 | 9.36
C[C@@]1(C(=O)O)CCC[C@]2(C)C1CC[C@@]13CC(=O)[C@@](CO)(CC[C@]12O)C3 (stereo partly specified) | > 100 | > 100 | > 100 | > 100 | > 100 | > 100 | > 100 | > 100 | 24.1 | > 100 | 11.7 | 97.8 µM | > 100 | > 100 | 90.7 | > 100 | > 100 | > 100 | > 100 | > 100
CC[C@@H]1c2c(C#N)ncn2-c2cnc(Nc3ccc(C(=O)NC4CCN(C5CCN(CC6CC6)CC5)CC4)cc3OC)nc2N1C1CCCC1 | 0.485 | 1.85 | 1.29 | 2.8 | 0.0249 | 0.104 | 0.0337 | 0.308 | 0.0853 | 1.85 | 0.0777 | 1.83 µM | 0.0401 | 1.63 | 0.0668 | 2.05 | 1.36 | 2.69 | 0.0431 | 1.67
CSC(=Nc1nnc(-c2ccc([N+](=O)[O-])cc2)s1)SC |  | > 100 |  | > 100 |  | > 100 |  | > 100 |  | > 100 |  | 33.1 µM |  | > 89.7 |  | 63.2 |  | 71.5 |  | > 100
NS(=O)(=O)c1ccc(-n2nc(-c3ccc(Cl)cc3)cc2-c2cc(O)ccc2O)cc1 | 23.9 | 58.3 | 20.9 | 47.6 | 10 | 69 | 4.9 | 21.2 |  |  | 16 | 38.9 µM | 4.34 | 13.7 |  |  | 26.5 | > 100 | 11.1 | 25.6
CCCCON(OC(=O)c1ccc2ccccc2c1)C(=O)c1ccccc1 | 92.3 | > 100 | > 100 | > 100 | 91 | > 100 | 41.7 | > 100 | > 100 | > 100 | 44.8 | > 100 µM | > 100 | > 100 | > 100 | > 100 | 53.1 | > 100 | > 100 | > 100
COc1cc(/C=C\c2cc(OC)c(OC)c(OC)c2)cc(NC(=O)/C=C/c2cc(OC)c(OC)c(OC)c2)c1OC | 2.92 | > 100 | 2.77 | > 100 | 0.509 | 4.46 |  |  | 3.34 | > 100 | 4.68 | > 100 µM | 10.8 | > 100 | 48.6 | > 100 | 1.09 | > 100 | 10.1 | > 100
